Measured values reported in ChEMBL document CHEMBL6071186, “Design, Synthesis, and Structural Evaluation of Acetylated Phenylthioketone Inhibitors of HDAC10” (ACS Med Chem Lett, 2024).

Columns and labels:
[1] = target: T1, Polyamine deacetylase HDAC10 (Homo sapiens) (UniProt Q969S8); conditions: dose 500.0 µM
T1 sequence (whole entry): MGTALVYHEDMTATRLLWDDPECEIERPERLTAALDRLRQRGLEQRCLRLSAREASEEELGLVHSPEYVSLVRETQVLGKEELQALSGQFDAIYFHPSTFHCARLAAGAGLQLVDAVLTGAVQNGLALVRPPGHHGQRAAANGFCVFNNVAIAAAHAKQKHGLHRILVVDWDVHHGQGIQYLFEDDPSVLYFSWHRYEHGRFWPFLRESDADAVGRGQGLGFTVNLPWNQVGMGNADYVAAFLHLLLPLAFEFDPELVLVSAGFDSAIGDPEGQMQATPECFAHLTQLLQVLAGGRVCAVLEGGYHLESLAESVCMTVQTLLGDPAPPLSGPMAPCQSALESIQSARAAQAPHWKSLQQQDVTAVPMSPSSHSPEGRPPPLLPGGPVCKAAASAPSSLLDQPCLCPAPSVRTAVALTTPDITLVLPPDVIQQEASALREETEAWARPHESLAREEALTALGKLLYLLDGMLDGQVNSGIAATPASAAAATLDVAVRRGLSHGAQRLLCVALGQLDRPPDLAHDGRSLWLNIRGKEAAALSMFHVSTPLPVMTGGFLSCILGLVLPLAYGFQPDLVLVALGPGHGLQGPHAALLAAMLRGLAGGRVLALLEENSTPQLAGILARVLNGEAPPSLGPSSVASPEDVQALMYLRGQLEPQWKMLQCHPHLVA
Description: Binding affinity to humanized HDAC10 (A24E to D94A residues) (unknown origin) extracted from Danio rerio assessed as thermal stability by measuring melting temperature at 500 uM by differential scanning fluorimetry analysis (Rvb = 47.8+/-0.1degreeC)

[2] = target: T1, Polyamine deacetylase HDAC10 (Homo sapiens); conditions: dose 500.0 µM; remark: listed apart in the source
Description: Binding affinity to humanized HDAC10 (A24E to D94A residues) (unknown origin) extracted from Danio rerio assessed as change in melting temperature at 500 uM by differential scanning fluorimetry analysis

Compound `CN1CCc2c(c3ccccc3n2Cc2ccc(C(=O)NO)cc2)C1` has a Tm [1] of 65.5 °C and a ΔTm [2] of 17.7 °C.
